Test results reported in patent US20150164910A1, “ANTIVIRAL COMPOUNDS AND METHODS OF USE” (The Regents of the University of Califonia, priority 2012, published 2015).

Assays:
[1] = test system: eGFP-expressing recombinant CVB3; assay type: cell-based, coxsackievirus B3; conditions: for Inhibition of infected cells: eGFP-CVB3 m.o.i=1, compound added at time of infection, 6 hr post infection, 1-(% eGFP+ cells with compound/% with DMSO only)
CVB3-H3 = assay: Plaque reduction assay, CVB3-H3 in HeLa-RW cells; assay type: cell-based, coxsackievirus B3; conditions: compound added 30 min before infection, CVB3-H3 MOI 1, HeLa-RW, 6 hours; log10(titer with DMSO only/titer with inhibitor)

## NNC(=O)c1cc(-c2ccccc2)nc2ccccc12 [Compound 26, 2-Phenyl-4-quinoline-carbohydrazide]
[1]
  Inhibition of infected cells: 98.7%
CVB3-H3
  Log10 reduction of virus titer: 2.5

## O=C(c1ccc2c(c1)OCCO2)C1CCN(C(=O)c2ccc(-n3cccn3)cc2)CC1 [Compound 46, 2,3-Dihydro-1,4-benzodioxin-6-yl {1-[4-(1H-pyrazol-1-yl)benzoyl]-4-piperidinyl}methanone]
[1]
  Inhibition of infected cells: 82.6%
CVB3-H3
  Log10 reduction of virus titer: 1.3

## CC(C)n1ncc2c(C(=O)Nc3cccc(S(C)(=O)=O)c3)cc(-c3cccs3)nc21 [Compound 10, 1-lsopropyl-N-[3-(methylsulfonyl)phenyl]-6-(2-thienyl)-1H-pyrazolo [3,4-b]pyridine-4-carboxamide]
[1]
  Inhibition of infected cells: 100%
CVB3-H3
  Log10 reduction of virus titer: 4.4

## CC(C)n1ncc2c(C(=O)Nc3cccc(-c4nnco4)c3)cc(-c3ccccc3)nc21 [Compound 17, 1-Isopropyl-N-[3-(1,3,4-oxadiazol-2-yl)phenyl]-6-phenyl-1H-pyrazolo[3,4-b]pyridine-4-carboxamide]
[1]
  Inhibition of infected cells: 99.6%
CVB3-H3
  Log10 reduction of virus titer: 4.3

## 1-Isopropyl- N,6-diphenyl-1H- pyrazolo[3,4-b] pyridine- 4-carboxamide [Compound 16]
[1]; compound added 0 hr post infection at its peak activity concentration, read 6 hr post infection, DMSO 26.0
  % of eGFP + cells, 0 Hr: 0.0%
[1]; compound added 1 hr post infection at its peak activity concentration, read 6 hr post infection, DMSO 23.7
  % of eGFP + cells, 1 Hr: 0.1%
[1]; compound added 2 hr post infection at its peak activity concentration, read 6 hr post infection, DMSO 24.8
  % of eGFP + cells, 2 Hr: 0.0%
[1]
  Inhibition of infected cells: 100%
CVB3-H3
  Log10 reduction of virus titer: 4.5

## Brc1ccc(-c2csc3ncnc(Sc4nnc(C5CC5)o4)c23)cc1 [Compound 53, 5-(4-Bromophenyl)-4-[(5-cyclopropyl-1,3,4-oxadiazol-2-yl)sulfanyl]thieno [2,3-d]pyrimidine]
[1]
  Inhibition of infected cells: 100%
CVB3-H3
  Log10 reduction of virus titer: 1.8

## CCCSc1nc2ccccc2c(=O)n1Cc1ccccc1 [Compound 47, 3-Benzyl-2-(propylsulfanyl)-4(3H)-quinazolinone]
[1]
  Inhibition of infected cells: 100%
CVB3-H3
  Log10 reduction of virus titer: 4.1

## CC(C)n1ncc2c(C(=O)Nc3cccc(-c4nnc5n4CCCCC5)c3)cc(C3CC3)nc21 [Compound 14, 6-Cyclopropyl-1-isopropyl-N-[3-(6,7,8,9-tetrahydro-5H-[1,2,4]triazolo [4,3-a]azepin-3-yl)phenyl]-1H-pyrazolo [3,4-b]pyridine-4-carboxamide]
[1]
  Inhibition of infected cells: 100%
CVB3-H3
  Log10 reduction of virus titer: 3.3

## Cc1nc2ccccc2c2c(NC(=O)c3cnccn3)c3ccccc3n12 [Compound 50, N-(6-Methylindolo [1,2-c]quinazolin-12-yl)-2-pyrazinecarboxamide]
[1]
  Inhibition of infected cells: 69.9%
CVB3-H3
  Log10 reduction of virus titer: 2.5

## Cc1ccc(NC(=O)c2cc(C3CC3)nc3c2cnn3C(C)C)cc1S(N)(=O)=O [Compound 11, 6-Cyclopropyl-1-isopropyl-N-(4-methyl-3-sulfamoylphenyl)-1H-pyrazolo[3,4-b]pyridine-4-carboxamide]
[1]
  Inhibition of infected cells: 99.6%
CVB3-H3
  Log10 reduction of virus titer: 4.1

## CCOc1ccc(C(=O)N2CCC(C(=O)c3ccc4c(c3)OCCO4)CC2)cc1 [Compound 44, 2,3-Dihydro-1,4-benzodioxin-6-yl[1-(4-ethoxybenzoyl)-4-piperidinyl] methanone]
[1]
  Inhibition of infected cells: 84.9%
CVB3-H3
  Log10 reduction of virus titer: 0.2

## NC1=Nc2nc3ccccc3n2C(c2ccc3ccccc3c2)N1 (stereo not drawn) [Compound 67, 4-(2-Naphthyl)-1,4-dihydro[1,3,5] triazino[1,2-a]benzimidazol-2-amine]
[1]
  Inhibition of infected cells: 67.7%
CVB3-H3
  Log10 reduction of virus titer: 1.9

## COc1ccc(-c2csc3ncn(CC(=O)c4ccc5c(c4)OCO5)c(=O)c23)cc1OC [Compound 54, 3-[2-(1,3-Benzodioxol-5-yl)-2-oxoethyl]-5-(3,4-dimethoxyphenyl) thieno[2,3-d]pyrimidin-4 (3H)-one]
[1]
  Inhibition of infected cells: 87.6%
CVB3-H3
  Log10 reduction of virus titer: 3.2

## CC1Oc2ccc(NC(=O)c3cc(C4CC4)nc4c3cnn4C(C)C)cc2NC1=O (stereo not drawn) [Compound 13, 6-Cyclopropyl-1-isopropyl-N-(2-methyl-3-oxo-3,4-dihydro-2H-1,4-benzoxazin-6-yl)-1H-pyrazolo [3,4-b]pyridine-4-carboxamide]
[1]
  Inhibition of infected cells: 100%
CVB3-H3
  Log10 reduction of virus titer: 4.2

## Cc1ccc(NC(=O)c2cc(-c3cccs3)nc3c2cnn3C(C)C)cc1S(N)(=O)=O [Compound 9, 1-Isopropyl-N-(4-methyl-3-sulfamoylphenyl)-6-(2-thienyl)-1H-pyrazolo[3,4-b] pyridine-4-carboxamide]
[1]
  Inhibition of infected cells: 100%
CVB3-H3
  Log10 reduction of virus titer: 4.5

## O=C(O)c1cccc(NS(=O)(=O)c2ccc(-c3ccccc3)cc2)c1 [Compound 56, 3-[(4-Biphenylylsulfonyl)amino] benzoic acid]
[1]
  Inhibition of infected cells: 85.4%
CVB3-H3
  Log10 reduction of virus titer: 0.3

## COc1ccc(-c2nc3cnccn3c2NCc2ccc(C)cc2)cc1CO [Compound 59, (2-Methoxy-5-{3-[(4-methylbenzyl)amino]imidazo[1,2-a]pyrazin-2-yl}phenyl)methanol]
[1]
  Inhibition of infected cells: 75.2%
CVB3-H3
  Log10 reduction of virus titer: 1.3

## C#CCSc1nc2ccccc2c(=O)n1Cc1ccccc1 [Compound 48, 3-Benzyl-2-(2-propyn-1-ylsulfanyl)-4(3H)-quinazolinone]
[1]
  Inhibition of infected cells: 100%
CVB3-H3
  Log10 reduction of virus titer: 4.5

## CC(=O)c1c(C)nc2ccc(Cl)cc2c1-c1ccccc1 [Compound 31, 1-(6-Chloro-2-methyl-4-phenyl-3-quinolinyl)ethanone]
[1]
  Inhibition of infected cells: 94.5%
CVB3-H3
  Log10 reduction of virus titer: 3.8

## Nc1nnc(SCc2nc3cc(Cl)ccc3n2Cc2ccccc2)s1 [Compound 43, 5-{[(1-Benzyl-5-chloro-1H-benzimidazol-2-yl)methyl]sulfanyl}-1,3,4-thiadiazol-2-amine]
[1]
  Inhibition of infected cells: 91.3%
CVB3-H3
  Log10 reduction of virus titer: 0.3

## Cn1ccc(NC(=O)c2cc(-c3cccs3)nc3ccccc23)n1 [Compound 32, N-(1-Methyl-1H-pyrazol-3-yl)-2-(2-thienyl)-4-quinoline-carboxamide]
[1]
  Inhibition of infected cells: 100%
CVB3-H3
  Log10 reduction of virus titer: 4.0

## COc1ccc(-c2nc(C)c(C(=O)Nc3cccc(-c4nnc5n4CCCCC5)c3)s2)cc1 [Compound 61, 2-(4-Methoxyphenyl)-4-methyl-N-[3-(6,7,8,9-tetrahydro-5H-[1,2,4]triazolo [4,3-a]azepin-3-yl)phenyl]-1,3-thiazole-5-carboxamide]
[1]
  Inhibition of infected cells: 96.0%
CVB3-H3
  Log10 reduction of virus titer: 1.8

## Cc1cc(F)ccc1NC(=O)c1cc(-c2cccs2)nc2c1cnn2C(C)C [Compound 4, N-(4-Fluoro-2-methylphenyl)-1-isopropyl-6-(2-thienyl)-1H-pyrazolo[3,4-b] pyridine-4-carboxamide]
[1]
  Inhibition of infected cells: 100%
CVB3-H3
  Log10 reduction of virus titer: 4.5

## O=C(Nc1nc(CN2CCOCC2)cs1)c1cc(-c2ccc(Cl)s2)nc2ccccc12 [Compound 34, 2-(5-Chloro-2-thienyl)-N-[4-(4-morpholinylmethyl)-1,3-thiazol-2-yl]-4-quinoline-carboxamide]
[1]
  Inhibition of infected cells: 94.4%
CVB3-H3
  Log10 reduction of virus titer: 3.5

## COc1ccc(CCC2CCN(Cc3cc(=O)n4ccccc4n3)CC2)cc1 [Compound 52, 2-({4-[2-(4-Methoxyphenyl)ethyl]-1-piperidinyl}methyl)-4H-pyrido[1,2-a]pyrimidin-4-one]
[1]
  Inhibition of infected cells: 57.7%
CVB3-H3
  Log10 reduction of virus titer: 0.0

## CC(C)c1cc(C(=O)Nc2cccc(N3CCCC3=O)c2)c2cnn(C(C)C)c2n1 [Compound 18, 1,6-Diisopropyl-N-[3-(2-oxo-1-pyrrolidinyl)phenyl]-1H-pyrazolo[3,4-b]pyridine-4-carboxamide]
[1]
  Inhibition of infected cells: 97.9%
CVB3-H3
  Log10 reduction of virus titer: 4.0

## Cl.Cl.OCCN1CCN(CC/C=C2/c3ccccc3Sc3ccc(C(F)(F)F)cc32)CC1 [Compound 70, 2-(4-{(3Z)-3-[2-(Trifluoromethyl)-9H-thioxanthen-9-ylidene]propyl}-1-piperazinyl)ethanol dihydrochloride, reference compound]
[1]
  Inhibition of infected cells: 99.6%
CVB3-H3
  Log10 reduction of virus titer: 3.9

## COc1ccc(/N=c2\oc3ccccc3cc2C(=O)NCC2CCCO2)cc1 (stereo not drawn) [Compound 62, (2Z)-2-[(4-Methoxyphenyl)imino]-N-(tetrahydro-2-furanylmethyl)-2H-chromene-3-carboxamide]
[1]
  Inhibition of infected cells: 90.4%
CVB3-H3
  Log10 reduction of virus titer: 1.5

## Cl.O[C@@H]1[C@@H](O)C=C2CCN3Cc4cc5c(cc4[C@H]1C23)OCO5 (stereo partly drawn) [Compound 73, (1S,2S,12bS)-2,4,5,7,12b,12c-Hexahydro-1H-[1,3]dioxolo[4,5-j]pyrrolo[3,2,1-de] phenanthridine-1,2-diol hydrochloride (1:1), reference compound]
[1]
  Inhibition of infected cells: 100%
CVB3-H3
  Log10 reduction of virus titer: 2.8

## CS(=O)(=O)c1ccc(NC(=O)c2cc(-c3ccc(F)cc3)nc3ccccc23)cc1 [Compound 28, 2-(4-Fluorophenyl)-N-[4-(methylsulfonyl)phenyl]-4-quinolinecarboxamide]
[1]
  Inhibition of infected cells: 99.6%
CVB3-H3
  Log10 reduction of virus titer: 4.5

## Cc1ccc(NC(=O)c2cc(-c3cccs3)nc3c2cnn3C(C)C)c(F)c1 [Compound 5, N-(2-Fluoro-4-methylphenyl)-1-isopropyl-6-(2-thienyl)-1H-pyrazolo[3,4-b] pyridine-4-carboxamide]
[1]
  Inhibition of infected cells: 99.3%
CVB3-H3
  Log10 reduction of virus titer: 4.4

## CCCCOc1cc(C(=O)NCCN(CC)CC)c2ccccc2n1 [Compound 35, 2-Butoxy-N-[2-(diethylamino)ethyl]-4-quinoline-carboxamide, reference compound]
[1]
  Inhibition of infected cells: 100%
